Measured values as given in patent US10392401B2, “Crystal form A of compound and preparation method thereof” (SHANGHAI INSTITUTE OF MATERIA MEDICA, CHINESE ACADEMY OF …, priority 2015, dated 2019).
Where two headings read alike, the source gives them in different places.

Key:
DPP IV [1] = target: T1, DPP IV (Mus musculus, UniProt P28843); test: Inhibition of DPP IV activity in normal mice plasma; format: in vivo
T1 construct: from tissue; host or cells: mouse plasma

[2] = Pharmacokinetic study in dogs; format: in vivo; conditions: versus alogliptin
ob/ob mice = test: Chronic administration to ob/ob mice, fasting blood glucose; format: in vivo
DPP IV [3] = target: DPP IV (Homo sapiens, UniProt P27487); test: DPP IV inhibitory activity and selectivity in vitro; format: biochemical
DPP IV [4] = target: T2, DPP IV (Rattus norvegicus, UniProt P14740); test: Inhibition of DPP IV activity in rat plasma; format: in vivo
T2 construct: from tissue; host or cells: rat plasma

Rat = test: Subacute toxicity test in Rat; format: in vivo; conditions: oral, 150 mg/kg group
ICR mice = test: Acute toxicity test in ICR mice; format: in vivo; conditions: 300 mg/kg group
[5] = Pharmacokinetic study in rats; format: in vivo; conditions: versus alogliptin
normal ICR mice = test: Oral glucose tolerance in normal ICR mice; format: in vivo
[6] = test system: gene-deficient db/db mice; test: Chronic administration to gene-deficient db/db mice, fasting blood glucose; format: in vivo
[7] = Oral absorption and bioavailability compared with amorphous powder; format: in vivo; conditions: versus amorphous powder
[8] = Hygroscopicity analysis (DVS); format: physicochemical
Method: Dynamic vapor absorption (DVS) test/water absorption test is conducted by rapidly measuring the increase and loss of the moisture in the sample caused by flow carrier gas with setted relative humidity (RH). The sample is placed on a digital microbalance with high sensitivity and high stability at a self-suspension state, and then by measuring the increase/decrease of the material mass so as to measure the adsorption/desorption of water vapor, thereby determining the hygroscopicity of the sample.
In the present invention, the test parameters for DVS are as follows: Instrument type: SMS DVS Intrinsic; Non-hydrate: 0 to 95%-0% RH; Temperature: 25° C.; Hydrate: 40 to 95%-0% RH; Temperature: 25° C.

[9] = Stability of the crystal form; format: physicochemical
[10] = Oral hypoglycemic activity compared with amorphous powder; format: in vivo; conditions: orally administered; versus amorphous powder
[11] = Solubility compared with amorphous powder; format: physicochemical; conditions: versus amorphous powder
[12] = versus positive control alogliptin

Chain of DPP IV (Homo sapiens, UniProt P27487) (P27487 whole entry, species assumed): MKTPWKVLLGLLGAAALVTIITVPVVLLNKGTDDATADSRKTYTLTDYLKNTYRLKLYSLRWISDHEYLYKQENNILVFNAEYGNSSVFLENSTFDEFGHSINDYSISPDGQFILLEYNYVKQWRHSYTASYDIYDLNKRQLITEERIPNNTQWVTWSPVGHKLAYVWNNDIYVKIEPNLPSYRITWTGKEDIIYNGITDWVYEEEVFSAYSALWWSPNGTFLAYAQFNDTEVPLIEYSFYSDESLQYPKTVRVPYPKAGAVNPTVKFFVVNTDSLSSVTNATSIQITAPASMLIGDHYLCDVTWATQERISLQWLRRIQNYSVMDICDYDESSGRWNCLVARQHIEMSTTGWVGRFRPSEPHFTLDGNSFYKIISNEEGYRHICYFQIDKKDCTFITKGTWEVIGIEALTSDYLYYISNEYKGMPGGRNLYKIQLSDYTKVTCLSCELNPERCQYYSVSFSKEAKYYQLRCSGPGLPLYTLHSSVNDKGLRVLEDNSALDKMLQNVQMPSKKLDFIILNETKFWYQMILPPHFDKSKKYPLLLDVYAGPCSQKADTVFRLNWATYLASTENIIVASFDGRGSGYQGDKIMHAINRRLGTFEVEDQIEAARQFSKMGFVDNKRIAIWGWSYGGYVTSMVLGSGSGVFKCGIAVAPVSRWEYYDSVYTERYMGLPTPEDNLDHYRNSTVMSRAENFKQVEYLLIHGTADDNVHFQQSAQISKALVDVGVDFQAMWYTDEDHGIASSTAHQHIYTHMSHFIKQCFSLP
T2 sequence (P14740 37-767 limits assumed): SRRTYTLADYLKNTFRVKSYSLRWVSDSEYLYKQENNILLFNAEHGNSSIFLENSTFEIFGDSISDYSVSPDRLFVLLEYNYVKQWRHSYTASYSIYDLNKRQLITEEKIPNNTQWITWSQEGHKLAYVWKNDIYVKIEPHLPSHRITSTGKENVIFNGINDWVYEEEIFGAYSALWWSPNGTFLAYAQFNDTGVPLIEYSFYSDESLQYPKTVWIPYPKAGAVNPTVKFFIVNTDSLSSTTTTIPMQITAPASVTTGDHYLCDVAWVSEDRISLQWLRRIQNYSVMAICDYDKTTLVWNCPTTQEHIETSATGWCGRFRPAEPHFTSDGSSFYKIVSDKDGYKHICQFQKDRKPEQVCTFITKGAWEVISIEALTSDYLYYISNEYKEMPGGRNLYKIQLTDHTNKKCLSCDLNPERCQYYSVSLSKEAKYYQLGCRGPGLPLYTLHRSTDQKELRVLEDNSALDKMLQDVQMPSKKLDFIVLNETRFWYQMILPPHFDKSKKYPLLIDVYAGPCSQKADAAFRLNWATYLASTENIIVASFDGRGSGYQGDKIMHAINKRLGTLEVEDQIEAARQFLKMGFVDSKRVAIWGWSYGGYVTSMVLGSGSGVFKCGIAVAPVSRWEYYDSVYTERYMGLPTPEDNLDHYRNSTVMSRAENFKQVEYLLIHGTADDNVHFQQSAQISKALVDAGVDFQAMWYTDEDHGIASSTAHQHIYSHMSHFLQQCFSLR
T1 sequence (P28843 37-760 limits assumed): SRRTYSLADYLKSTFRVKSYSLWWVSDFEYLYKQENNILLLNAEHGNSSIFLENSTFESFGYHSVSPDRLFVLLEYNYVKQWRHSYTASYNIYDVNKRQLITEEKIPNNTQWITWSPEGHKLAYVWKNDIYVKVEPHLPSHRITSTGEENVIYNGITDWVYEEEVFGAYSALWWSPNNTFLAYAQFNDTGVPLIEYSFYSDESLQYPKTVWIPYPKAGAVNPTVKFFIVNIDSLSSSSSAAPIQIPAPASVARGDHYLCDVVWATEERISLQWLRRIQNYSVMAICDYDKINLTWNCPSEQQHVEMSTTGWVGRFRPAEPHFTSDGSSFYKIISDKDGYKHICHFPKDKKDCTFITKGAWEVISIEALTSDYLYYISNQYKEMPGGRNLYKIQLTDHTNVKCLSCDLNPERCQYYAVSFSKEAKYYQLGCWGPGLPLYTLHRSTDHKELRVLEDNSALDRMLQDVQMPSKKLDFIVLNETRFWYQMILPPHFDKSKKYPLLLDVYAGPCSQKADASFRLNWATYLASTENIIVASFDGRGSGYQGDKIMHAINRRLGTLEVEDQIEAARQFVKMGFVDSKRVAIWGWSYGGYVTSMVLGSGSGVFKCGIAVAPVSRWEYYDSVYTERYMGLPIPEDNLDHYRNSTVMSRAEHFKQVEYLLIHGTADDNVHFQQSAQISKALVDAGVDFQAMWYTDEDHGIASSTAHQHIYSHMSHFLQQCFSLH

Structure (SMILES): COC(=O)c1cc2nc(N3CCC[C@@H](N)C3)n(Cc3ccccc3C#N)c(=O)c2s1 [Formula I, (R)-methyl-2-(3-aminopiperidin-1-yl)-3-(2-cyanobenzyl)-4-carbonyl-3,4-dihydroth iophene[3,2-d] pyrimidine-6-carboxylic acid]
- DPP IV activity in plasma (DPP IV [1]): effectively inhibit
- DPP IV inhibitory activity compared with alogliptin (DPP IV [1]; versus alogliptin): superior
- AUC0-t compared with alogliptin [2]: superior
- half-life compared with alogliptin [2]: superior
- fasting blood glucose (ob/ob mice): effectively reduce
- fasting blood glucose reduction compared with alogliptin (ob/ob mice; [12]): superior
- type of DPP IV inhibition (DPP IV [3]): selective and reversible competitive
- inhibitory activity (DPP IV [3]; in vitro): nanomolar level
- inhibitory activity and selectivity in vitro compared with sitagliptin and vildagliptin (DPP IV [3]; in vitro, versus listed drugs sitagliptin and vildagliptin): superior
- DPP IV activity in plasma (DPP IV [4]): effectively inhibit
- DPP IV inhibitory activity compared with alogliptin (DPP IV [4]; versus alogliptin): superior
- toxicity in subacute toxicity test (Rat): no obvious toxicity
- death in acute toxicity test (ICR mice): no death
- AUC0-t compared with alogliptin [5]: superior
- half-life compared with alogliptin [5]: superior
- effective dose for increasing oral glucose tolerance (normal ICR mice; dose-dependent): 0.1 mg/kg
- effect on oral glucose tolerance compared with alogliptin (normal ICR mice; versus alogliptin): superior
- fasting blood glucose [6]: can reduce
- fasting blood glucose reduction compared with alogliptin [6, 12]: comparable

Structure (SMILES): COC(=O)c1cc2nc(N3CCC[C@@H](N)C3)n(Cc3ccccc3C#N)c(=O)c2s1 [crystal form A, (R)-methyl-2-(3-aminopiperidin-1-yl)-3-(2-cyanobenzyl)-4-carbonyl-3,4-dihydrothiop hene[3,2-d] pyrimidine-6-carboxylic acid]
- oral absorption ability compared with amorphous powder [7]: enhance oral absorption ability
- hygroscopicity [8]: less than 1%
- moisture content ([8]; 40% RH): 0.26%
- moisture absorbed ([8]; 65% RH): 0.42%
- moisture absorbed ([8]; 80% RH): 0.57%
- hygroscopicity (DVS) ([8]; FIG. 5, crystal of Example 1): slight hygroscopicity
- variation range of humidity ([8]; range of conventional storage humidity): smaller than 2.0%
- hygroscopicity ([8]; relative humidity RH less than 50%): less than 0.3%
- stability, in particular thermal stability ([9]; compared with the prior art): better stability
- degradability ([9]; conventional conditions): not easily degradable
- hypoglycemic activity compared with amorphous powder [10]: better
- solubility compared with amorphous powder [11]: improve solubility
